Assay results: the kinase profiling compilation of Christmann-Franck et al. (2016)

Key:
Assay in all cases: KINOMEscan competition binding
Details in all cases: compound 10.0 µM
CAMK2D (human) = CAMK2D (human) (UniProt Q13557)
CDC2L2 (human) = CDC2L2 (human) (UniProt Q9UQ88)
CDK15 (human) = CDK15 (human) (UniProt Q96Q40)
CDK19 (human) = CDK19 (human) (UniProt Q9BWU1)
CSK (human) = CSK (human) (UniProt P41240)
CSNK2A1 (human) = CSNK2A1 (human) (UniProt P68400)
DAPK1 (human) = DAPK1 (human) (UniProt P53355)
[1] = system: EGFR (human), P00533 [747-751 del / S ins]
[2] = system: EGFR (human), P00533 [T790M]
EPHA3 (human) = EPHA3 (human) (UniProt P29320)
ERBB2 (human) = ERBB2 (human) (UniProt P04626)
FLT1 (human) = FLT1 (human) (UniProt P17948)
[3] = system: FLT3 (human), P36888 [R834Q]
INSR (human) = INSR (human) (UniProt P06213)
INSRR (human) = INSRR (human) (UniProt P14616)
[4] = target: JAK3 JH1 catalytic (human) (UniProt P52333)
LATS1 (human) = LATS1 (human) (UniProt O95835)
LIMK2 (human) = LIMK2 (human) (UniProt P53671)
LTK (human) = LTK (human) (UniProt P29376)
MAP2K6 (human) = MAP2K6 (human) (UniProt P52564)
MAP3K1 (human) = MAP3K1 (human) (UniProt Q13233)
MAP3K6 (human) = MAP3K6 (human) (UniProt O95382)
MAST1 (human) = MAST1 (human) (UniProt Q9Y2H9)
MUSK (human) = MUSK (human) (UniProt O15146)
PKMYT1 (human) = PKMYT1 (human) (UniProt Q99640)
PRKCD (human) = PRKCD (human) (UniProt Q05655)
PRKCE (human) = PRKCE (human) (UniProt Q02156)
RPS6KA2 KD2 (human) = RPS6KA2 KD2 (human) (UniProt Q15349)
RPS6KA5 KD1 (human) = RPS6KA5 KD1 (human) (UniProt O75582)
SIK2 (human) = SIK2 (human) (UniProt Q9H0K1)
SRMS (human) = SRMS (human) (UniProt Q9H3Y6)
TLK1 (human) = TLK1 (human) (UniProt Q9UKI8)
TNK1 (human) = TNK1 (human) (UniProt Q13470)
TXK (human) = TXK (human) (UniProt P42681)
TXK (human), sequence (P42681 whole entry, looked up): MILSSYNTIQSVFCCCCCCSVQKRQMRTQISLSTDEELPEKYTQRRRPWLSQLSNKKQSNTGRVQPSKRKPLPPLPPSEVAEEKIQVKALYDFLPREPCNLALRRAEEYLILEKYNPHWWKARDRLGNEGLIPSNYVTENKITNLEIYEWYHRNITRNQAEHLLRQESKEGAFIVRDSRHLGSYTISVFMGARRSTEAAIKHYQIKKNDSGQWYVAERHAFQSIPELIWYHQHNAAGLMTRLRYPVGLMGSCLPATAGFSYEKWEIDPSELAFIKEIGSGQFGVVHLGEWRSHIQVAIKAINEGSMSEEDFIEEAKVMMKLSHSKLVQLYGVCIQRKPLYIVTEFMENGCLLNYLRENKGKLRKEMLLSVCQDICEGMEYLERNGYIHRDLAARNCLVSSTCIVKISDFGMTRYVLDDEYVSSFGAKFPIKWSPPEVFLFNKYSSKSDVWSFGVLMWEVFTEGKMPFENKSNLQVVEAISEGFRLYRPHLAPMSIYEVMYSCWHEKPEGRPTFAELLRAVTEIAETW

CAMK2D (human), sequence (Q13557 whole entry, looked up): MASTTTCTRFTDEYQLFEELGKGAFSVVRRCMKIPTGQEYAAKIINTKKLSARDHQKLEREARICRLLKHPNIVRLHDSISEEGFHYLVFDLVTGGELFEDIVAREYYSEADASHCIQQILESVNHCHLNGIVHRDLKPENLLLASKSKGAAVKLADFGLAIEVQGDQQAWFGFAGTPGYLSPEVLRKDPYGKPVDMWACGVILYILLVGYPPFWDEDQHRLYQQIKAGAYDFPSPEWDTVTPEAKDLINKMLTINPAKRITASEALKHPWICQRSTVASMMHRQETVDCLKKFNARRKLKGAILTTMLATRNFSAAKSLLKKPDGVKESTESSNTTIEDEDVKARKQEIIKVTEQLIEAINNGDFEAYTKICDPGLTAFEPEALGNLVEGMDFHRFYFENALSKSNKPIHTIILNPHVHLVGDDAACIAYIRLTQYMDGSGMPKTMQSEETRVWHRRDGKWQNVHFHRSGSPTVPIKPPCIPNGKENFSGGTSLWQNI
DAPK1 (human), sequence (P53355 whole entry, looked up): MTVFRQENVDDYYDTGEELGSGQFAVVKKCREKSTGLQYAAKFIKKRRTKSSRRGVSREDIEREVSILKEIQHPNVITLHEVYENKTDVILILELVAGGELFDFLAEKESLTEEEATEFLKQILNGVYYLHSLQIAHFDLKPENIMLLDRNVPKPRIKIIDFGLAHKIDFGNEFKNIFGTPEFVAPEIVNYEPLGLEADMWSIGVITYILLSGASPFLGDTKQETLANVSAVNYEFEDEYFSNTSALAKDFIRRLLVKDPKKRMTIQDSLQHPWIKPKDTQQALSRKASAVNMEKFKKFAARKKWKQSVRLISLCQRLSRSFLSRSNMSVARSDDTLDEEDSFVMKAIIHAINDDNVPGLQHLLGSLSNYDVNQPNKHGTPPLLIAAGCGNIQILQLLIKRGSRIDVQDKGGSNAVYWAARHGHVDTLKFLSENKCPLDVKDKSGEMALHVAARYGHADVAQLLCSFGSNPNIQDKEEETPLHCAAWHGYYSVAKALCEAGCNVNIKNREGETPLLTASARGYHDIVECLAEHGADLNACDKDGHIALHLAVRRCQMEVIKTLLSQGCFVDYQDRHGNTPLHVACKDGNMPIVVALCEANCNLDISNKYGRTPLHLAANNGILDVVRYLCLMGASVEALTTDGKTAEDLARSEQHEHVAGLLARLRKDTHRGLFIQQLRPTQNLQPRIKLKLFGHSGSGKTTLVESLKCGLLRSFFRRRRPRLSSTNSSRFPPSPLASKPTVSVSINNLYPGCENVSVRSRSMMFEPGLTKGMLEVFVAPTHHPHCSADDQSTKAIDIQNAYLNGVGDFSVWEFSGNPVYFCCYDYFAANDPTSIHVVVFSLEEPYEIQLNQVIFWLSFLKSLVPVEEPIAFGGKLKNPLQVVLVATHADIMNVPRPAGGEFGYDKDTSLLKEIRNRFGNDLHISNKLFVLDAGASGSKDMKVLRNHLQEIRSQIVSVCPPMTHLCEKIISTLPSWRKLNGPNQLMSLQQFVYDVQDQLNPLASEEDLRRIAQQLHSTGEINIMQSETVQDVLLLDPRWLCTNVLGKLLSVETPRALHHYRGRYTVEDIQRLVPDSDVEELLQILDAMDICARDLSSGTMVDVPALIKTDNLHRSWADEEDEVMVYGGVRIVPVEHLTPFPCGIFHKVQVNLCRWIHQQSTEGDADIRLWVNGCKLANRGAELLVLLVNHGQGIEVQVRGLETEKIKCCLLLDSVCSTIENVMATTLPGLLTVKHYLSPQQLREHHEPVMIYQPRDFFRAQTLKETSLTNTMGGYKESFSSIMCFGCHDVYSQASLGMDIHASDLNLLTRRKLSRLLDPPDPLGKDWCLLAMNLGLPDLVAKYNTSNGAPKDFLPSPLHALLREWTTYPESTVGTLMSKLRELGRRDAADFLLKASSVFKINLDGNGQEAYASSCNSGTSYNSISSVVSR
EPHA3 (human), sequence (P29320 whole entry, looked up): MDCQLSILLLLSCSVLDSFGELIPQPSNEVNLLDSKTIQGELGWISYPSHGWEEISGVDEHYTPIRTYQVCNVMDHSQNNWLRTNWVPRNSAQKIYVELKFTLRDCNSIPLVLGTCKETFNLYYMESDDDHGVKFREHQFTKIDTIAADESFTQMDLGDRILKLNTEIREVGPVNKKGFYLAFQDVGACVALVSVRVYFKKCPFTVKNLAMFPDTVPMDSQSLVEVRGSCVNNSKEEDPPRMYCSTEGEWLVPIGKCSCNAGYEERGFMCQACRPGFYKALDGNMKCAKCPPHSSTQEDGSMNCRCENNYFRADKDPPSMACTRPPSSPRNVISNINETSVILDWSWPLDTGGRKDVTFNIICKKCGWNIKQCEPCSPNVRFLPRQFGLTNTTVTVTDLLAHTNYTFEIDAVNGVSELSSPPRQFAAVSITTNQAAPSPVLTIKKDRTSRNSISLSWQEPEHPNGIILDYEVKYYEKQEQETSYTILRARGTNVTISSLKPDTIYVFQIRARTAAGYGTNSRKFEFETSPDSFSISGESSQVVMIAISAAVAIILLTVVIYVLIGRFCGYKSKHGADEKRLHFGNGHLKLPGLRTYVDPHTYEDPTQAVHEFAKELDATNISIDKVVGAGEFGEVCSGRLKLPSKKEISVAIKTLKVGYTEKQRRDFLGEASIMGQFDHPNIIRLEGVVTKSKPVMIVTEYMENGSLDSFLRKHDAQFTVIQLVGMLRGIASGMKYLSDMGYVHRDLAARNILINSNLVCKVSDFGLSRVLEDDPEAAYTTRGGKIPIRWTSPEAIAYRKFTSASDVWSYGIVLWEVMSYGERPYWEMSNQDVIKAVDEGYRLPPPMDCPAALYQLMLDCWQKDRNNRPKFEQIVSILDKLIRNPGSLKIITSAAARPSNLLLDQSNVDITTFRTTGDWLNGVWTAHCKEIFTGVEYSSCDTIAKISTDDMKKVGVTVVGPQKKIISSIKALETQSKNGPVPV
MAST1 (human), sequence (Q9Y2H9 whole entry, looked up): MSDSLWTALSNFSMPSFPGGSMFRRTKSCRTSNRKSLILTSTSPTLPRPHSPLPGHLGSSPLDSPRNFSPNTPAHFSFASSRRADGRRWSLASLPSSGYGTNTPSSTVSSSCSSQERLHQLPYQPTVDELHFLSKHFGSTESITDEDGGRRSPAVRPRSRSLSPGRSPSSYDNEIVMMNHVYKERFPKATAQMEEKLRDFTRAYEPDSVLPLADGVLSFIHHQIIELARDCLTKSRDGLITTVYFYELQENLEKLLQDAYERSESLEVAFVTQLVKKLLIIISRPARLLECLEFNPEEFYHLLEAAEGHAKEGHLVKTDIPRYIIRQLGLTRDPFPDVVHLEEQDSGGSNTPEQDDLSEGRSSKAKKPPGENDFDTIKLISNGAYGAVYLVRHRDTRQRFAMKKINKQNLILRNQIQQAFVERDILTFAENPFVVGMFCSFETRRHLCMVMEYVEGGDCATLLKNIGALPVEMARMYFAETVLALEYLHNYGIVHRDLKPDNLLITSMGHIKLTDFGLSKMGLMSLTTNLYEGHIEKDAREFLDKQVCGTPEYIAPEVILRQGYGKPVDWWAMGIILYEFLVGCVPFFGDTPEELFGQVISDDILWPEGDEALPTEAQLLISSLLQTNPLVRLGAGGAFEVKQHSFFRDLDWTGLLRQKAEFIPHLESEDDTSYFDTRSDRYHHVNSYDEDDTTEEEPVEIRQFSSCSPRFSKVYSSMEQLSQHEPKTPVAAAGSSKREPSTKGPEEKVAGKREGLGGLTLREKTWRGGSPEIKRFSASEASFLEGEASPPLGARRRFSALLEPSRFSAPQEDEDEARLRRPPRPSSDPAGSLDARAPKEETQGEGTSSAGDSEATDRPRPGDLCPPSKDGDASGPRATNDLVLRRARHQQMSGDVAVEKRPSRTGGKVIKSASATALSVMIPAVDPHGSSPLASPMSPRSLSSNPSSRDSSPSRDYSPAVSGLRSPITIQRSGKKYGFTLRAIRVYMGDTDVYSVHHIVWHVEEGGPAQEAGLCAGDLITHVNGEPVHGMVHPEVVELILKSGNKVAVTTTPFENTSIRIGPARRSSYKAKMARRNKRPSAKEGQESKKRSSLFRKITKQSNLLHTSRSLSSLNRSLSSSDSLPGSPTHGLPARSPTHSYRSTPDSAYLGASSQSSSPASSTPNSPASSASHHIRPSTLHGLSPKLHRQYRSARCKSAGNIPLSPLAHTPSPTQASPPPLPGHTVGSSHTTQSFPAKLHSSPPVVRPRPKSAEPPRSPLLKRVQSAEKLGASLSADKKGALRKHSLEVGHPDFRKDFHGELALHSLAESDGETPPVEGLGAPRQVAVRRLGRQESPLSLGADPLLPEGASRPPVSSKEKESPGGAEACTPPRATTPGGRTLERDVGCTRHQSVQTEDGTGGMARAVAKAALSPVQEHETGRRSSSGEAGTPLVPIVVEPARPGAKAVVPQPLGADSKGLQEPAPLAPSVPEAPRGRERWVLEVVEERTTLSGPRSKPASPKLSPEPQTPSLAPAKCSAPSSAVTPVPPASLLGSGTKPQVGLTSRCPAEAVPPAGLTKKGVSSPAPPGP

C=CC(=O)Nc1cc(-n2c(=O)ccc3cnc4ccc(-c5cn[nH]c5)cc4c32)ccc1C
kinase still bound, per cent of control (CAMK2D (human)): 36% | kinase still bound, per cent of control (CDC2L2 (human)): 100% | kinase still bound, per cent of control (CDK15 (human)): 49% | kinase still bound, per cent of control (CDK19 (human)): 100% | kinase still bound, per cent of control (CSK (human)): 100% | kinase still bound, per cent of control (CSNK2A1 (human)): 4.6% | kinase still bound, per cent of control (DAPK1 (human)): 70% | kinase still bound, per cent of control [1]: 63% | kinase still bound, per cent of control [2]: 1.4% | kinase still bound, per cent of control (EPHA3 (human)): 100% | kinase still bound, per cent of control (ERBB2 (human)): 42% | kinase still bound, per cent of control (FLT1 (human)): 100% | kinase still bound, per cent of control [3]: 12% | kinase still bound, per cent of control (INSR (human)): 90% | kinase still bound, per cent of control (INSRR (human)): 100% | kinase still bound, per cent of control [4]: 0% | kinase still bound, per cent of control (LATS1 (human)): 100% | kinase still bound, per cent of control (LIMK2 (human)): 100% | kinase still bound, per cent of control (LTK (human)): 100% | kinase still bound, per cent of control (MAP2K6 (human)): 53% | kinase still bound, per cent of control (MAP3K1 (human)): 97% | kinase still bound, per cent of control (MAP3K6 (human)): 75% | kinase still bound, per cent of control (MAST1 (human)): 85% | kinase still bound, per cent of control (MUSK (human)): 93% | kinase still bound, per cent of control (PKMYT1 (human)): 81% | kinase still bound, per cent of control (PRKCD (human)): 80% | kinase still bound, per cent of control (PRKCE (human)): 100% | kinase still bound, per cent of control (RPS6KA2 KD2 (human)): 92% | kinase still bound, per cent of control (RPS6KA5 KD1 (human)): 100% | kinase still bound, per cent of control (SIK2 (human)): 62% | kinase still bound, per cent of control (SRMS (human)): 75% | kinase still bound, per cent of control (TLK1 (human)): 100% | kinase still bound, per cent of control (TNK1 (human)): 73% | kinase still bound, per cent of control (TXK (human)): 7%

CNC(=O)c1cc(Oc2ccc(NC(=O)Nc3ccc(Cl)c(C(F)(F)F)c3)cc2)ccn1
kinase still bound, per cent of control (CAMK2D (human)): 95% | kinase still bound, per cent of control (CDC2L2 (human)): 85% | kinase still bound, per cent of control (CDK15 (human)): 19% | kinase still bound, per cent of control (CDK19 (human)): 1.4% | kinase still bound, per cent of control (CSK (human)): 70% | kinase still bound, per cent of control (CSNK2A1 (human)): 100% | kinase still bound, per cent of control (DAPK1 (human)): 99% | kinase still bound, per cent of control (ERBB2 (human)): 100% | kinase still bound, per cent of control (FLT1 (human)): 6.6% | kinase still bound, per cent of control [3]: 50% | kinase still bound, per cent of control (INSR (human)): 100% | kinase still bound, per cent of control (INSRR (human)): 97% | kinase still bound, per cent of control [4]: 58% | kinase still bound, per cent of control (LATS1 (human)): 79% | kinase still bound, per cent of control (LIMK2 (human)): 57% | kinase still bound, per cent of control (LTK (human)): 88% | kinase still bound, per cent of control (MAP2K6 (human)): 76% | kinase still bound, per cent of control (MAP3K1 (human)): 64% | kinase still bound, per cent of control (MAP3K6 (human)): 100% | kinase still bound, per cent of control (MAST1 (human)): 100% | kinase still bound, per cent of control (MUSK (human)): 0.1% | kinase still bound, per cent of control (PKMYT1 (human)): 94% | kinase still bound, per cent of control (PRKCD (human)): 100% | kinase still bound, per cent of control (PRKCE (human)): 86% | kinase still bound, per cent of control (RPS6KA2 KD2 (human)): 81% | kinase still bound, per cent of control (RPS6KA5 KD1 (human)): 100% | kinase still bound, per cent of control (SIK2 (human)): 97% | kinase still bound, per cent of control (TLK1 (human)): 100% | kinase still bound, per cent of control (TNK1 (human)): 37% | kinase still bound, per cent of control (TXK (human)): 77%

C[C@@H](Oc1cc(-c2cnn(C3CCNCC3)c2)cnc1N)c1c(Cl)ccc(F)c1Cl
kinase still bound, per cent of control (CAMK2D (human)): 100% | kinase still bound, per cent of control (CDC2L2 (human)): 0.35% | kinase still bound, per cent of control (CDK15 (human)): 73% | kinase still bound, per cent of control (CDK19 (human)): 100% | kinase still bound, per cent of control (CSNK2A1 (human)): 65% | kinase still bound, per cent of control (DAPK1 (human)): 74% | kinase still bound, per cent of control (EPHA3 (human)): 11% | kinase still bound, per cent of control (FLT1 (human)): 25% | kinase still bound, per cent of control [3]: 25% | kinase still bound, per cent of control (INSR (human)): 0.2% | kinase still bound, per cent of control (INSRR (human)): 0.25% | kinase still bound, per cent of control [4]: 0.65% | kinase still bound, per cent of control (LATS1 (human)): 100% | kinase still bound, per cent of control (LIMK2 (human)): 4.6% | kinase still bound, per cent of control (LTK (human)): 0.3% | kinase still bound, per cent of control (MAP2K6 (human)): 54% | kinase still bound, per cent of control (MAP3K1 (human)): 4.4% | kinase still bound, per cent of control (MAP3K6 (human)): 87% | kinase still bound, per cent of control (MAST1 (human)): 100% | kinase still bound, per cent of control (MUSK (human)): 0.3% | kinase still bound, per cent of control (PKMYT1 (human)): 100% | kinase still bound, per cent of control (PRKCD (human)): 100% | kinase still bound, per cent of control (PRKCE (human)): 100% | kinase still bound, per cent of control (RPS6KA2 KD2 (human)): 28% | kinase still bound, per cent of control (RPS6KA5 KD1 (human)): 100% | kinase still bound, per cent of control (SIK2 (human)): 12% | kinase still bound, per cent of control (SRMS (human)): 54% | kinase still bound, per cent of control (TLK1 (human)): 61% | kinase still bound, per cent of control (TNK1 (human)): 7.1% | kinase still bound, per cent of control (TXK (human)): 5.9%

COCC(=O)NC/C=C/c1ccc2ncnc(Nc3ccc(Oc4ccc(C)nc4)c(C)c3)c2c1
kinase still bound, per cent of control (CAMK2D (human)): 100% | kinase still bound, per cent of control (CDC2L2 (human)): 100% | kinase still bound, per cent of control (CDK15 (human)): 71% | kinase still bound, per cent of control (CDK19 (human)): 0.5% | kinase still bound, per cent of control (CSK (human)): 59% | kinase still bound, per cent of control (CSNK2A1 (human)): 87% | kinase still bound, per cent of control (DAPK1 (human)): 76% | kinase still bound, per cent of control (EPHA3 (human)): 97% | kinase still bound, per cent of control (ERBB2 (human)): 0% | kinase still bound, per cent of control (FLT1 (human)): 88% | kinase still bound, per cent of control [3]: 100% | kinase still bound, per cent of control (INSRR (human)): 100% | kinase still bound, per cent of control [4]: 100% | kinase still bound, per cent of control (LATS1 (human)): 100% | kinase still bound, per cent of control (LIMK2 (human)): 100% | kinase still bound, per cent of control (LTK (human)): 88% | kinase still bound, per cent of control (MAP2K6 (human)): 93% | kinase still bound, per cent of control (MAP3K1 (human)): 100% | kinase still bound, per cent of control (MAP3K6 (human)): 100% | kinase still bound, per cent of control (MAST1 (human)): 100% | kinase still bound, per cent of control (MUSK (human)): 100% | kinase still bound, per cent of control (PKMYT1 (human)): 100% | kinase still bound, per cent of control (PRKCD (human)): 87% | kinase still bound, per cent of control (PRKCE (human)): 100% | kinase still bound, per cent of control (RPS6KA5 KD1 (human)): 99% | kinase still bound, per cent of control (SIK2 (human)): 84% | kinase still bound, per cent of control (SRMS (human)): 71% | kinase still bound, per cent of control (TLK1 (human)): 79% | kinase still bound, per cent of control (TNK1 (human)): 86% | kinase still bound, per cent of control (TXK (human)): 84%
